Among the data in US7582649B2, “Hydroxy alkyl substituted 1,3,8-triazaspiro[4.5]decan-4-one derivatives useful for the treatment of ORL-1 receptor mediated disorders” (Janssen Pharmaceutica, NV, priority 2002, dated 2009) are IC50 values, retold here.

Where two headings read alike, the source gives them in different places.

For test [1], the target named is D2 receptor (Homo sapiens, UniProt P14416). The experiment in a line: Filtration binding assay, dopamine (Spiperone-I125).
For test [2], the target named is mu opioid receptor (Homo sapiens, UniProt P35372). The test is described as follows: Filtration binding assay: mu opioid receptor.
Chain of mu opioid receptor (P35372 whole entry): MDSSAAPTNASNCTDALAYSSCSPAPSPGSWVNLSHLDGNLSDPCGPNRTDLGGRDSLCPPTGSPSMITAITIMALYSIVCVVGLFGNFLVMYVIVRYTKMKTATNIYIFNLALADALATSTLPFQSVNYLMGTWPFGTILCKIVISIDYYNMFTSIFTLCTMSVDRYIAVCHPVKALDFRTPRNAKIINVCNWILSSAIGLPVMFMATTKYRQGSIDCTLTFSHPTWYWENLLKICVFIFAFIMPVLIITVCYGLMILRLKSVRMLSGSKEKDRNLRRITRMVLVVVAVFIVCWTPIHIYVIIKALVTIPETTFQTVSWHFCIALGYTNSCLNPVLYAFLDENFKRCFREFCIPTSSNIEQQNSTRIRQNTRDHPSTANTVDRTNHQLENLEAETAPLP
Test [3] has as its target kappa opioid receptor (Homo sapiens, UniProt P41145). The experiment in a line: Filtration binding assay: kappa opioid receptor.

Chain of D2 receptor (P14416 whole entry): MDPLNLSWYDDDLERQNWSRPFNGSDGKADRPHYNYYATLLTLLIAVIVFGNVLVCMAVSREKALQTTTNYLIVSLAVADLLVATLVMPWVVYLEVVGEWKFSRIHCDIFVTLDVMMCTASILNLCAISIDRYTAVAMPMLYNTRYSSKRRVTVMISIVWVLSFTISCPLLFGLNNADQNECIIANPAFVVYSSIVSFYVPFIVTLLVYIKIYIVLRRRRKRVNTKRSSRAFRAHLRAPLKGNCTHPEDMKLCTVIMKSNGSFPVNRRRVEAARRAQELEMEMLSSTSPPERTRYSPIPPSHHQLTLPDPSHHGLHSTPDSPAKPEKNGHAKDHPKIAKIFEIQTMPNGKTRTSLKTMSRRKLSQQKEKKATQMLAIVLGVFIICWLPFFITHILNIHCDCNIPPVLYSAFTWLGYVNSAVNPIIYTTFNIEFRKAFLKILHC
Chain of kappa opioid receptor (P41145 whole entry): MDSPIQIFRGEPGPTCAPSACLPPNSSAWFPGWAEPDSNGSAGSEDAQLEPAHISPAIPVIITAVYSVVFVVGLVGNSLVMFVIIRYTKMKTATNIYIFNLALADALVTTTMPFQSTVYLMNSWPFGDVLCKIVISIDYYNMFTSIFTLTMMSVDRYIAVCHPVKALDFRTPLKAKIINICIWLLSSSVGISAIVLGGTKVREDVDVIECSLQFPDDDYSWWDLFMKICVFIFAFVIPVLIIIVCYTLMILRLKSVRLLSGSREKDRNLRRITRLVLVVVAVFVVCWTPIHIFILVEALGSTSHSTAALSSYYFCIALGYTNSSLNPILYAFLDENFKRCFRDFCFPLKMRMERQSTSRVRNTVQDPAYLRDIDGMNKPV

In general, IC50 refers to the concentration that inhibits the measured activity by half. Take `O=C1N(C[C@@H](O)CNc2ccncc2)CN(c2ccc(F)cc2)C12CCN(C1Cc3cccc4cccc1c34)CC2` (some centres unmarked) [Compound #327, 8-Acenaphthen-1-yl-1-(4-fluoro-phenyl)-3-[2-hydroxy-3-(pyridin-4-ylamino)-propyl]-1,3,8-triaza-spiro[4.5]decan-4-one]: the IC50 in test [1] stood at 387 nM.
On to `CCN(C)C[C@H](O)CN1CN(c2ccc(F)cc2)C2(CCN(Cc3cccc4cccc(C)c34)CC2)C1=O` [Compound #440, 3-[3-(Ethyl-methyl-amino)-2-hydroxy-(S)-propyl]-1-(4-fluoro-phenyl)-8-(8-methyl-naphthalen-1-ylmethyl)-1,3,8-triaza-spiro[4.5]decan-4-one], for which the IC50 in test [2] is above 10000 nM; in test [3], above 10000 nM; in test [1] (D2 receptor, Spiperone-I125, read-out: IC50), 1520 nM.
In test [1], `CCN(C)C[C@H](O)CN1CN(c2ccc(F)cc2)C2(CCN([C@H]3Cc4cccc5cccc3c45)CC2)C1=O` [compound 433] returned an IC50 of 3520 nM.
